# Test results from patent US20070196344A1, “Methods for identifying materials that can help regulate the condition of mammalian keratinous tissue” (The Procter & Gamble Company, priority 2006, published 2007).
# How the values were obtained:
# [1] = test system: Hyaluronic Acid; assay: Hyaluronic acid ELISA on extracts of treated MatTek EpiDermFT (EFT-200) full thickness skin equivalent cultures; format: cell-based, human; conditions: topical 0.5%, 1.0%, 2.0% in water, 20-24 hours, EFT-200 cultures, vs vehicle Control; dose-responsive
# Protocol: (§1) To evaluate skin anti-aging benefits of n-acetyl glucosamine and niacinamide. An in vitro skin biomarker experiment is conducted using the MatTek Human Skin EpiDermFT Skin Model (EFT 200; MatTek Corp., Ashland, Mass. USA). The MatTek Skin Model is a full thickness culture system that emulates normal human skin properties and function. It contains a three-dimensional, highly differentiated human epidermis with 8-12 cell layers including basal, spinous, granular and stratum corneum layers; the epidermis is grown above a human dermal fibroblast-containing collagen matrix. The MatTek cultures are air-interfaced, so that test substances can be applied topically to the stratum corneum surface. The cultures are supplied in 24-well, medium-supplemented agarose gels.
# (§2) MatTek EFT-200 full thickness skin equivalent cultures used are examined for visual defects and equilibrated overnight after their arrival from the supplier. After treatment with test materials the cultures' viability is confirmed through MTT viability assay. […]
# (§3) After treatment for 20-24 hours, replicate (3) cultures are extracted using a mild extraction buffer (T-per). The extract is then analyzed for hyaluronic acid and procollagen-1.
# (§4) • 1. […] Analyze supernatant with the Micro BCA kit to quantitate protein concentration. • 4. […]
# [2] = test system: Procollagen I; assay: Procollagen I ELISA on extracts of treated MatTek EpiDermFT (EFT-200) full thickness skin equivalent cultures; format: cell-based, human; conditions: topical 0.5%, 2.0% in water, 20-24 hours, EFT-200 cultures, vs vehicle Control, dose-responsive
# Protocol: as §1, §2, §3, §4
smiles,measurement,setting,value
CC(=O)N[C@@H]1[C@@H](O)[C@H](O)[C@@H](CO)O[C@H]1O [n-Acetyl Glucosamine],expression of hyaluronic acid,[1],significantly increased over Control
same,expression of procollagen 1,[2],significantly increased over Control
